Test results: ChEMBL document CHEMBL3639235, “Depsipeptides and their therapeutic use” (2014)

Target: Histone deacetylase 1 (Homo sapiens, UniProt Q13547)
Experiment: Fluorescent Activity Assay: In vitro HDAC assays were performed using a HDAC fluorescent activity assay kit (Biomol, UK) according to the manufacturer's instructions. Compounds were reduced prior to analysis; 1 mM compound was reduced with 30 mM DTT in DMSO overnight at room temperature, protected from light. Reactions were then set up in a 96-well plate. For each reaction 10 ul compound (5x required concentration in assay buffer) was mixed with […] diluted HeIa Nuclear Extract (30-fold in assay buffer). Serial dilutions were set up for each compound. Reactions containing HeIa extract only and assay buffer only were also set up. 25 ul diluted Fluor de Lys substrate (100-fold in assay buffer) was added to each reaction, which were then incubated at 37C for 1 hour. The reaction was stopped by addition of 50 ul Fluor de Lys Developer (20-fold dilution in assay buffer, plus TSA diluted 100-fold). The reactions were then incubated at room temperature for 10 minutes before fluorescence was measured.

Sequence of Histone deacetylase 1 (Q13547 whole entry): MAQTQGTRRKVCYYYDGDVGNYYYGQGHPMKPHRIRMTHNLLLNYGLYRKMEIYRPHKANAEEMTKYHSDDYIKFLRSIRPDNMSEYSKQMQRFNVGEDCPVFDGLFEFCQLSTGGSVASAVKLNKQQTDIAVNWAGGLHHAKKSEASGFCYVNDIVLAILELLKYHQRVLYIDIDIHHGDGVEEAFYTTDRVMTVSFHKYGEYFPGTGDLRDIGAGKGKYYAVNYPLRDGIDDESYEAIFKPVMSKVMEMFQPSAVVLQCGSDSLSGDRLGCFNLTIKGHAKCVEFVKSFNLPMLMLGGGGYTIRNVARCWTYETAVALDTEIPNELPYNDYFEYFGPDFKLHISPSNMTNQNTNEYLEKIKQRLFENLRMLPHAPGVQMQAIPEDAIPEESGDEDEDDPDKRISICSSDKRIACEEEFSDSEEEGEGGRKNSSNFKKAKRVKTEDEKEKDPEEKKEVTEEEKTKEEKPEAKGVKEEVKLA

## CC(=O)SCC/C=C/[C@@H]1CC(=O)N[C@H](C(C)C)C(=O)N[C@H](C)C(=O)N[C@H](C(C)C)[C@@H](O)CC(=O)O1
  IC50: 21.6 nM
